# Data from US8598193B2, “Polycyclic agents for the treatment of respiratory syncytial virus infections” (Biota Scientific Management Pty Ltd., priority 2003, dated 2013).
# System: RSV A2
# Experiment: RSV antiviral cytopathic effect (CPE) assay, MTT readout
# Format: cell-based
# Conditions: human respiratory syncytial virus, HEp-2, 120 h; RSV A2 in HEp2 cells, CPE assay, MTT, approx. 5 days; read-out: Activity Range (RSV A2 antiviral EC50), compounds of Table 2
# Protocol: Method Q: RSV Antiviral Assay Protocol
# Compounds of the invention were tested for their antiviral activity against respiratory syncytial virus. Cytopathic effect (CPE) assays were performed essentially as described in the literature (see for example Watanabe et al, 1. Virological Methods, 1994, 48, 257). Serial dilutions of the test compounds were made in assay medium. HEp2 cells (1.0×10^4 cells/well) were infected with RSV at a low multiplicity of infection (e.g. RSV A2 at an moi of 0.01) and 100 μL added to cultures assessing antiviral activity and cells without virus added to those assessing compound cytotoxicity. Assays were incubated for approximately 5 days at 37° C. in a 5% CO2 atmosphere. The extent of CPE was determined via metabolism of the vital dye 3-(4,5-dimethylthiaxol-2-yl)-2,5-diphenyltetrazolium bromide (MTT). A 3 mg/ml stock of MTT was made in assay medium and 100 μL added to each well, taking the final MTT concentration to […]. After 2 hours incubation at 37° C., the media-MTT solution was removed and 200 μL of isopropanol was added to dissolve the vital dye crystals. Plates were shaken and the absorbance read at 540 nm. The compound concentrations that inhibited CPE by 50% (EC50) and developed cytotoxicity (CC50) were calculated using an Excel curve fitting program.
row,EC50 [µg/mL],SMILES
1,< 0.1,O=C(c1ccc(F)cc1)N1CCN2C(=O)c3ccccc3C12c1ccc(Br)cc1 (stereo not shown) [Compound 234]
2,< 0.1,O=C(c1ccco1)N1CCN2C(=O)c3ccccc3C12c1ccc(Cl)cc1 (stereo not shown) [Compound 219]
3,0.1 to 0.25,CCC(=O)N1CCN2C(=O)c3ccccc3C12c1ccc(Br)cc1 (stereo not shown) [Compound 236]
4,0.1 to 0.25,CCOc1ccsc1C(=O)N1CCN2C(=O)c3ccccc3C21c1ccc(Cl)cc1 (stereo not shown) [Compound 329]
5,0.25 to 1,Cc1nc(C(=O)N2CCN3C(=O)c4ccccc4C23c2ccc(Cl)cc2)cs1 (stereo not shown) [Compound 188]
6,0.25 to 1,C=CCCC(=O)N1CCN2C(=O)c3ccccc3C12c1ccc(Cl)cc1 (stereo not shown) [Compound 250]
7,0.25 to 1,O=C(CSc1ccccn1)N1CCN2C(=O)c3ccccc3C12c1ccc(Cl)cc1 (stereo not shown) [Compound 299]
8,< 0.1,O=C(c1cccs1)N1CCN2C(=O)c3ccccc3C12c1ccc(Cl)cc1 (stereo not shown) [Compound 224]
9,0.25 to 1,CCC(=O)N1CCN2C(=O)c3ccccc3C12c1ccc(C(F)(F)F)cc1 (stereo not shown) [Compound 305]
10,0.25 to 1,COc1ccc(CNC(=O)N2CCN3C(=O)c4ccccc4C23c2ccc(C)cc2)cc1 (stereo not shown) [Compound 179]
11,< 0.1,Cc1nonc1C(=O)N1CCN2C(=O)c3ccccc3C21c1ccc(Cl)cc1 (stereo not shown) [Compound 335]
12,0.25 to 1,CC(C)CC(=O)N1CCN2C(=O)c3ccccc3C12c1ccc(Cl)cc1 (stereo not shown) [Compound 214]
13,0.25 to 1,O=C(Oc1ccc(C23c4ccccc4C(=O)N2CCN3C(=O)c2ccc(F)cc2)cc1)c1ccc(F)cc1 (stereo not shown) [Compound 237]
14,0.25 to 1,O=C(CCCc1ccccc1)N1CCN2C(=O)c3ccccc3C12c1ccc(Cl)cc1 (stereo not shown) [Compound 227]
15,< 0.1,O=C(c1ccc(F)nc1)N1CCN2C(=O)c3ccccc3C12c1ccc(OCC2CC2)cc1 (stereo not shown) [Compound 316]
16,< 0.1,CCc1ccc(C23c4ccccc4C(=O)N2CCN3C(=O)c2ccc(F)cc2)cc1 (stereo not shown) [Compound 191]
17,0.1 to 0.25,O=C(c1ccc(F)nc1)N1CCN2C(=O)c3ccccc3C12c1ccc(F)cc1 (stereo not shown) [Compound 314]
18,0.25 to 1,Cc1ccc(C23c4ccccc4C(=O)N2CCN3C(=O)NCc2ccccc2)cc1 (stereo not shown) [Compound 82]

row,EC50 [µg/mL],SMILES
1,0.25 to 1,O=C(CC1CCCC1)N1CCN2C(=O)c3ccccc3C12c1ccc(Cl)cc1 (stereo not shown) [Compound 216]
2,0.1 to 0.25,N#CCCCOc1ccc(C23c4ccccc4C(=O)N2CCN3C(=O)c2ccc(F)cc2)cc1 (stereo not shown) [Compound 260]
3,< 0.1,O=C(c1csc(-c2cccnc2)n1)N1CCN2C(=O)c3ccccc3C12c1ccc(Cl)cc1 (stereo not shown) [Compound 205]
4,0.25 to 1,CCCc1ccc(C23c4ccccc4C(=O)N2CCN3C(=O)Cc2ccc(OC)cc2)cc1 (stereo not shown) [Compound 201]
5,0.25 to 1,CCC(=O)N1CCN2C(=O)c3ccccc3C12c1ccc(C)cc1 (stereo not shown) [Compound 117]
6,0.1 to 0.25,O=C(c1ccoc1)N1CCN2C(=O)c3ccccc3C12c1ccc(Cl)cc1 (stereo not shown) [Compound 326]
7,0.1 to 0.25,CCCOc1ccc(C23c4ccccc4C(=O)N2CCN3C(=O)c2ccc(F)cc2)cc1 (stereo not shown) [Compound 311]
8,0.25 to 1,NC(=O)COc1ccc(C23c4ccccc4C(=O)N2CCN3C(=O)c2ccc(F)cc2)cc1 (stereo not shown) [Compound 266]
9,0.25 to 1,O=C1c2ccccc2C2(c3ccc(Cl)cc3)N1CCN2C(=O)c1cccc2c1OCCO2 (stereo not shown) [Compound 245]
10,< 0.1,CCCc1ccc(C23c4ccccc4C(=O)N2CCN3C(=O)c2ccc(F)cc2)cc1 (stereo not shown) [Compound 200]
11,0.1 to 0.25,O=C(c1ccc(F)cc1)N1CCN2C(=O)c3ccccc3C12c1ccc(OCCCCl)cc1 (stereo not shown) [Compound 261]
12,0.1 to 0.25,COc1ccc(NC(=O)N2CCN3C(=O)c4ccccc4C23c2ccc(Cl)cc2)cc1 (stereo not shown) [Compound 85]
13,0.1 to 0.25,O=C(c1cscn1)N1CCN2C(=O)c3ccccc3C12c1ccc(Cl)cc1 (stereo not shown) [Compound 334]
14,0.25 to 1,O=C1c2ccccc2C2(c3ccc(Cl)cc3)N1CCN2C(=O)c1nsc(Cl)c1Cl (stereo not shown) [Compound 331]
15,0.25 to 1,COc1ccc(CC(=O)N2CCN3C(=O)c4ccccc4C23c2ccc(F)cc2)cc1 (stereo not shown) [Compound 232]
16,0.1 to 0.25,COCCOc1ccc(C23c4ccccc4C(=O)N2CCN3C(=O)c2ccc(F)cc2)cc1 (stereo not shown) [Compound 238]
17,0.1 to 0.25,O=C(c1ccsc1)N1CCN2C(=O)c3ccccc3C12c1ccc(Cl)cc1 (stereo not shown) [Compound 327]

# Same assay, conditions: human respiratory syncytial virus, HEp-2, 120 h; RSV A2 in HEp2 cells, CPE assay, MTT, approx. 5 days; read-out: Activity Range (RSV A2 antiviral EC50), compounds of Table 3
row,EC50 [µg/mL],SMILES
1,0.25 to 1,CCc1ccc(C23c4c[n+]([O-])ccc4C(=O)N2CCN3C(=O)c2ccc(F)cc2)cc1 (stereo not shown) [Compound 372]
2,0.25 to 1,Cc1cc(C(=O)N2CCN3C(=O)c4ccncc4C23c2ccc(Cl)cc2)no1 (stereo not shown) [Compound 382]
